Legend:
Type in all cases: in vivo
[1] = tested on: barnyardgrass; assay: Test Example 2: herbicidal effects during the vegetation period under submerged conditions; conditions: treatment during the vegetation period under submerged conditions; dose 2.52 g/a
In short: (§1)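 Barnyardgrass, bulrush and ducksalad were co-sown in alluvial soil flooded to 4 cm and grown in a greenhouse at 25 to 30° C. At the 1- or 2-leaf stage, water-diluted emulsifiable concentrates went onto the water surface at set doses (g/a). Herbicidal effect was scored three weeks later on a graded scale.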

[2] = tested on: bulrush; assay: as above; conditions: treatment during the vegetation period under submerged conditions; dose 2.52 g/a
In short: as §1

[3] = tested on: ducksalad; assay: as above; conditions: treatment during the vegetation period under submerged conditions; dose 2.52 g/a
In short: as §1

[4] = tested on: barnyardgrass; assay: Test Example 4: herbicidal effect in foliage treatment; conditions: dose 3.2 g/a
In short: (§2)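 Foliar spray, post-emergence: 14-day-old greenhouse plants (25–30° C, diluvial soil) treated with water-diluted EC at set g/a doses; visual herbicidal score at 3 wk post-application.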

[5] = tested on: posumbu knotweed; assay: as above; conditions: dose 3.2 g/a
In short: as §2

[6] = tested on: common lambsquater; assay: as above; conditions: dose 3.2 g/a
In short: as §2

[7] = tested on: large crabgrass; assay: as above; conditions: dose 3.2 g/a
In short: as §2

[8] = tested on: wild oat; assay: as above; conditions: dose 3.2 g/a
In short: as §2

[9] = tested on: beadstraw; assay: as above; conditions: dose 3.2 g/a
In short: as §2

[10] = tested on: redroot pigweed; assay: as above; conditions: dose 3.2 g/a
In short: as §2

[11] = tested on: Italian ryegrass; assay: as above; conditions: dose 3.2 g/a
In short: as §2

[12] = tested on: water foxtail; assay: as above; conditions: dose 3.2 g/a
In short: as §2

[13] = tested on: common chickweed; assay: as above; conditions: dose 3.2 g/a
In short: as §2

[14] = tested on: common ragweed; assay: as above; conditions: dose 3.2 g/a
In short: as §2

[15] = tested on: giant foxtail; assay: as above; conditions: dose 3.2 g/a
In short: as §2

[16] = tested on: velvetleaf; assay: as above; conditions: dose 3.2 g/a
In short: as §2

[17] = tested on: barnyardgrass; assay: Test Example 1: herbicidal effects in preemergence treatment under submerged conditions; conditions: dose 2.52 g/a
In short: (§3)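 Flooded-paddy preemergence assay; EC diluted with water, surface-applied at weed seeding; doses g/a; rice transplanted at 2.5 leaves; 0–5 mortality score after 3 weeks.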

[18] = tested on: bulrush; assay: as above; conditions: dose 2.52 g/a
In short: as §3

[19] = tested on: ducksalad; assay: as above; conditions: dose 2.52 g/a
In short: as §3

[20] = tested on: transplanted rice; assay: Test Example 1: preemergence treatment under submerged conditions, effect on crop; conditions: dose 2.52 g/a
In short: as §3

[21] = tested on: barnyardgrass; assay: Test Example 3: herbicidal effects in soil treatment; conditions: dose 3.2 g/a
In short: (§4)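 Seeds were sown in sterilized diluvial soil and covered with about 1.5 cm of soil. Compounds, formulated as emulsifiable concentrates and diluted with water, were sprayed evenly over the soil surface at set doses in g/a. Herbicidal effect was scored on a rating scale three weeks later.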

[22] = tested on: posumbu knotweed; assay: as above; conditions: dose 3.2 g/a
In short: as §4

[23] = tested on: common lambsquater; assay: as above; conditions: dose 3.2 g/a
In short: as §4

[24] = tested on: large crabgrass; assay: as above; conditions: dose 3.2 g/a
In short: as §4

[25] = tested on: redroot pigweed; assay: as above; conditions: dose 3.2 g/a
In short: as §4

[26] = tested on: Italian ryegrass; assay: as above; conditions: dose 3.2 g/a
In short: as §4

[27] = tested on: water foxtail; assay: as above; conditions: dose 3.2 g/a
In short: as §4

[28] = tested on: common chickweed; assay: as above; conditions: dose 3.2 g/a
In short: as §4

[29] = tested on: common ragweed; assay: as above; conditions: dose 3.2 g/a
In short: as §4

[30] = tested on: giant foxtail; assay: as above; conditions: dose 3.2 g/a
In short: as §4

[31] = tested on: velvetleaf; assay: as above; conditions: dose 3.2 g/a
In short: as §4

[32] = three weeks after the application

Compound	A: barnyardgrass, herbicidal effect (evaluation scale 0-5) [1]	B: bulrush, herbicidal effect (evaluation scale 0-5) [2]	C: ducksalad, herbicidal effect (evaluation scale 0-5) [3]	A: barnyardgrass, herbicidal effect (evaluation scale 0-5) [17]	B: bulrush, herbicidal effect (evaluation scale 0-5) [18]	C: ducksalad, herbicidal effect (evaluation scale 0-5) [19]	a: transplanted rice, effect on crop (evaluation scale 0-5) [20]	A: barnyardgrass, herbicidal effect (evaluation scale 0-5) [21]	M: posumbu knotweed, herbicidal effect (evaluation scale 0-5) [22]	L: common lambsquater, herbicidal effect (evaluation scale 0-5) [23]	D: large crabgrass, herbicidal effect (evaluation scale 0-5) [24]	K: redroot pigweed, herbicidal effect (evaluation scale 0-5) [25]	H: Italian ryegrass, herbicidal effect (evaluation scale 0-5) [26]	G: water foxtail, herbicidal effect (evaluation scale 0-5) [27]	N: common chickweed, herbicidal effect (evaluation scale 0-5) [28]	J: common ragweed, herbicidal effect (evaluation scale 0-5) [29]	E: giant foxtail, herbicidal effect (evaluation scale 0-5) [30]	A: barnyardgrass, herbicidal effect ([4]; three weeks after application)	M: posumbu knotweed, herbicidal effect ([5]; three weeks after application)	L: common lambsquater, herbicidal effect ([6]; three weeks after application)	further results
CCOC(=O)N(c1ccccc1CN1COC(C)(C(F)(F)F)C(Br)C1=O)S(=O)(=O)C(F)(F)F (centres unmarked) [II-75]	5 (mortality of 90% or above (nearly complete death))	5 (mortality of 90% or above (nearly complete death))	5 (mortality of 90% or above (nearly complete death))	5 (mortality of 90% or above (nearly complete death))	5 (mortality of 90% or above (nearly complete death))	5 (mortality of 90% or above (nearly complete death))	0 (mortality of less than 5% (almost ineffective))	–	–	–	–	–	–	–	–	–	–	–	–	–	A: barnyardgrass, herbicidal effect [4, 32]: 4 (mortality of at least 70% and less than 90%); M: posumbu knotweed, herbicidal effect [5, 32]: 1 (mortality of at least 5% and less than 20%); L: common lambsquater, herbicidal effect [6, 32]: 4 (mortality of at least 70% and less than 90%); D: large crabgrass, herbicidal effect [7, 32]: 1 (mortality of at least 5% and less than 20%); F: wild oat, herbicidal effect [8, 32]: 0 (mortality of less than 5% (almost ineffective)); O: beadstraw, herbicidal effect [9, 32]: 5 (mortality of 90% or above (nearly complete death)); K: redroot pigweed, herbicidal effect [10, 32]: 3 (mortality of at least 40% and less than 70%); H: Italian ryegrass, herbicidal effect [11, 32]: 3 (mortality of at least 40% and less than 70%); G: water foxtail, herbicidal effect [12, 32]: 2 (mortality of at least 20% and less than 40%); N: common chickweed, herbicidal effect [13, 32]: 3 (mortality of at least 40% and less than 70%); J: common ragweed, herbicidal effect [14, 32]: 0 (mortality of less than 5% (almost ineffective)); E: giant foxtail, herbicidal effect [15, 32]: 1 (mortality of at least 5% and less than 20%); I: velvetleaf, herbicidal effect [16, 32]: 3 (mortality of at least 40% and less than 70%)
CCOC(=O)N(c1ccccc1CN1COC(c2ccccc2)CC1=O)S(=O)(=O)C(F)(F)F (centres unmarked) [II-10]	4 (mortality of at least 70% and less than 90%)	5 (mortality of 90% or above (nearly complete death))	5 (mortality of 90% or above (nearly complete death))	5 (mortality of 90% or above (nearly complete death))	5 (mortality of 90% or above (nearly complete death))	5 (mortality of 90% or above (nearly complete death))	0 (mortality of less than 5% (almost ineffective))	4 (mortality of at least 70% and less than 90%)	0 (mortality of less than 5% (almost ineffective))	3 (mortality of at least 40% and less than 70%)	4 (mortality of at least 70% and less than 90%)	0 (mortality of less than 5% (almost ineffective))	2 (mortality of at least 20% and less than 40%)	5 (mortality of 90% or above (nearly complete death))	5 (mortality of 90% or above (nearly complete death))	0 (mortality of less than 5% (almost ineffective))	4 (mortality of at least 70% and less than 90%)	4 (mortality of at least 70% and less than 90%)	4 (mortality of at least 70% and less than 90%)	3 (mortality of at least 40% and less than 70%)	D: large crabgrass, herbicidal effect ([7]; three weeks after application): 0 (mortality of less than 5% (almost ineffective)); F: wild oat, herbicidal effect ([8]; three weeks after application): 0 (mortality of less than 5% (almost ineffective)); O: beadstraw, herbicidal effect ([9]; three weeks after application): 3 (mortality of at least 40% and less than 70%); K: redroot pigweed, herbicidal effect ([10]; three weeks after application): 0 (mortality of less than 5% (almost ineffective)); H: Italian ryegrass, herbicidal effect ([11]; three weeks after application): 1 (mortality of at least 5% and less than 20%); G: water foxtail, herbicidal effect ([12]; three weeks after application): 4 (mortality of at least 70% and less than 90%); N: common chickweed, herbicidal effect ([13]; three weeks after application): 4 (mortality of at least 70% and less than 90%); J: common ragweed, herbicidal effect ([14]; three weeks after application): 3 (mortality of at least 40% and less than 70%); E: giant foxtail, herbicidal effect ([15]; three weeks after application): 3 (mortality of at least 40% and less than 70%); I: velvetleaf, herbicidal effect ([16]; three weeks after application): 4 (mortality of at least 70% and less than 90%)
CCC1(C)CC(=O)N(Cc2ccccc2NS(=O)(=O)C(F)(F)F)CO1 (centres unmarked) [II-40]	4 (mortality of at least 70% and less than 90%)	5 (mortality of 90% or above (nearly complete death))	5 (mortality of 90% or above (nearly complete death))	5 (mortality of 90% or above (nearly complete death))	5 (mortality of 90% or above (nearly complete death))	5 (mortality of 90% or above (nearly complete death))	0 (mortality of less than 5% (almost ineffective))	5 (mortality of 90% or above (nearly complete death))	4 (mortality of at least 70% and less than 90%)	0 (mortality of less than 5% (almost ineffective))	5 (mortality of 90% or above (nearly complete death))	4 (mortality of at least 70% and less than 90%)	5 (mortality of 90% or above (nearly complete death))	5 (mortality of 90% or above (nearly complete death))	5 (mortality of 90% or above (nearly complete death))	5 (mortality of 90% or above (nearly complete death))	5 (mortality of 90% or above (nearly complete death))	5 (mortality of 90% or above (nearly complete death))	0 (mortality of less than 5% (almost ineffective))	4 (mortality of at least 70% and less than 90%)	I: velvetleaf, herbicidal effect (evaluation scale 0-5) [31]: 5 (mortality of 90% or above (nearly complete death)); D: large crabgrass, herbicidal effect ([7]; three weeks after application): 3 (mortality of at least 40% and less than 70%); O: beadstraw, herbicidal effect ([9]; three weeks after application): 3 (mortality of at least 40% and less than 70%); K: redroot pigweed, herbicidal effect ([10]; three weeks after application): 0 (mortality of less than 5% (almost ineffective)); H: Italian ryegrass, herbicidal effect ([11]; three weeks after application): 5 (mortality of 90% or above (nearly complete death)); G: water foxtail, herbicidal effect ([12]; three weeks after application): 5 (mortality of 90% or above (nearly complete death)); N: common chickweed, herbicidal effect ([13]; three weeks after application): 4 (mortality of at least 70% and less than 90%); J: common ragweed, herbicidal effect ([14]; three weeks after application): 4 (mortality of at least 70% and less than 90%); E: giant foxtail, herbicidal effect ([15]; three weeks after application): 4 (mortality of at least 70% and less than 90%); I: velvetleaf, herbicidal effect ([16]; three weeks after application): 5 (mortality of 90% or above (nearly complete death))

From US20120029187A1, “HALOALKYLSULFONANILIDE DERIVATIVE” (Nissan Chemical Industries, Ltd., priority 2009, published 2012)
